The values below come from ChEMBL document CHEMBL1629598, “Statistical model to evaluate in vivo activities of antimalarial drugs in a Plasmodium cynomolgi-macaque model for Plasmodium vivax malaria” (2009).

Assay [1] concerns Plasmodium cynomolgi. Nature of the assay: Antimalarial activity against blood-stage of Plasmodium cynomolgi M infected in rhesus macaque assessed as reduction of parasitemia administered intramuscularly twice daily for 8 consecutive days measured on day 28 (reference value: 6.1%). The class given is functional. Set-up: scale not given: the % may be the effect or the level left.

Assay [2] has as its system Plasmodium cynomolgi. Nature of the assay: Antimalarial activity against blood-stage of Plasmodium cynomolgi M infected in rhesus macaque assessed as reduction of peak parasitemia administered intramuscularly twice daily measured on day 3. The class given is functional, organism-based.
Assay [3] concerns Plasmodium cynomolgi. Nature of the assay: Antimalarial activity against blood-stage of Plasmodium cynomolgi M infected in rhesus macaque assessed as reduction of peak parasitemia days administered intramuscularly twice daily measured after 2nd dose (reference value: 3.5%). The class given is functional.
Assay [4] has as its system Plasmodium cynomolgi. Nature of the assay: Antimalarial activity against blood-stage of Plasmodium cynomolgi M infected in rhesus macaque assessed as reduction of peak parasitemia days at 3 to 27 mg/kg, po qd for 4 consecutive days. The assay is classed as functional. The following applies: dose mg/kg 3-27.
Assay [5] deals with Plasmodium cynomolgi. Nature of the assay: Antimalarial activity against blood-stage of Plasmodium cynomolgi M infected in rhesus macaque assessed as reduction of peak parasitemia days at 27 mg/kg, po qd for 4 consecutive days. The assay is classed as functional.
In assay [6] the test system is Plasmodium cynomolgi. Nature of the assay: Antimalarial activity against blood-stage of Plasmodium cynomolgi M infected in rhesus macaque assessed as reduction of parasitemia days at 3 mg/kg, po qd after 4 to 5 days. Set-up: dose 3 mg/kg. The assay is classed as functional, organism-based.
The test system of assay [7] is Plasmodium cynomolgi. Nature of the assay: Antimalarial activity against blood-stage of Plasmodium cynomolgi M infected in rhesus macaque assessed as reduction of peak parasitemia days at 3 mg/kg, po qd for 4 consecutive days. The assay is classed as functional.
Assay [8] deals with Plasmodium cynomolgi. Nature of the assay: Antimalarial activity against blood-stage of Plasmodium cynomolgi M infected in rhesus macaque assessed as reduction of peak parasitemia days at 9 mg/kg, po qd for 4 consecutive days. The assay is classed as functional.
For assay [9], the system named is Plasmodium cynomolgi. Nature of the assay: Antimalarial activity against blood-stage of Plasmodium cynomolgi M infected in rhesus macaque assessed as reduction of parasitemia days at 9 mg/kg, po qd after 4 to 5 days. The assay is classed as functional, organism-based. On the set-up: dose 9 mg/kg.
The subject of assay [10] is Plasmodium cynomolgi. Nature of the assay: Antimalarial activity against blood-stage of Plasmodium cynomolgi M infected in rhesus macaque assessed as reduction of parasitemia at 3 to 27 mg/kg, po qd for 8 consecutive days (reference value: 3%). On the set-up: scale not given: the % may be the effect or the level left. The note with it: dose mg/kg 3-27. The assay is classed as functional.

For assay [11], the system named is Plasmodium cynomolgi. Nature of the assay: Antimalarial activity against blood-stage of Plasmodium cynomolgi M infected in rhesus macaque assessed as reduction of parasitemia days at 27 mg/kg, po qd after 4 to 5 days. The class given is functional, organism-based. Set-up: dose 27 mg/kg.
Assay [12] deals with Plasmodium cynomolgi. Nature of the assay: Antimalarial activity against blood-stage of Plasmodium cynomolgi M infected in rhesus macaque assessed as reduction of peak parasitemia days at 40 mg/kg, po qd for 8 consecutive days. The class given is functional.
Assay [13] deals with Plasmodium cynomolgi. Nature of the assay: Antimalarial activity against blood-stage of Plasmodium cynomolgi M infected in rhesus macaque assessed as complete cure at 40 mg/kg, po qd after 4 days. The assay is classed as functional, organism-based. Set-up: dose 40 mg/kg.
The subject of assay [14] is Plasmodium cynomolgi. Nature of the assay: Antimalarial activity against blood-stage of Plasmodium cynomolgi M infected in rhesus macaque assessed as reduction of parasitemia at 40 mg/kg, po qd for 8 consecutive days (reference value: 4.7%). The assay is classed as functional. Set-up: scale not given: the % may be the effect or the level left.

Active and inactive are the calls of the source. The calls are words filed in the database; no cut-off is given here.

Consider `C[N+]1(CCCCCCCCCCCCCCCC[N+]2(C)CCCC2)CCCC1.[Br-].[Br-]`, for which the Activity in assay [1] is 0.5%. Also, the outcome in [2] was Active. Moreover, the Time in assay [3] is 0.7 days.

For `C/C(=C1\CCOC(=O)S1)N(C=O)CCCCCCCCCCCCN(C=O)/C(C)=C1/CCOC(=O)S1`, the Time in assay [4] is 1.9 days; in assay [5], 1.6 days; in [7], 2 days; in assay [8] it was 1.7 days. Besides, the result in [6], in [9] and in [11] was Active. The Activity in assay [10] was 0.6%.

On to `COCC/C(SC(=O)c1ccc(CN2CCOCC2)cc1)=C(\C)N(C=O)CCCCCCCCCCCCN(C=O)/C(C)=C(/CCOC)SC(=O)c1ccc(CN2CCOCC2)cc1.O=C(O)C(O)C(O)C(=O)O`, for which the Time in assay [12] turned out to be 1 days. In addition, in assay [13], the outcome was Active. Further, the Activity in [14] is recorded as 1.5%.
